In one data set the test system is children with Autism. The settings on record: 18 children with Autism; cited from earlier work.
For data set [1] the following is noted: human; cited from earlier work.
Data set [2] has as its system patients with Fragile X syndrome. The settings on record: cited from earlier work; for Efficacy on symptoms in patients with Fragile X Syndrome: published trials.
For data set [3], the system named is FMR1-KO mice. In words: Open field, locomotive activity (hyperactivity). The class given is in vivo, mouse. Conditions: chronic treatment, 15-minute period, treated vs FMR1-KO without treatment, saline control and Tianeptine (tianeptine group: FMR1-KO vs WT). The source says:
FIG. 1. Open-field distance travelled by the mice in a 15-minute period of time for the different treatments.
In all the groups of WT mice, locomotion was maintained without significant variations, about 4000 cm of distance travelled (FIG. 1); this test was used to check the mice's hyperactivity.

Data set [4] concerns FMR1-KO mice. Briefly: Raised cross-shaped maze (anxiety). The settings on record: chronic treatment, 5-minute period, treated vs FMR1-KO without treatment, saline control and Tianeptine (Tianeptine group: FMR1-KO vs WT). The class given is in vivo, mouse. From the text:
FIG. 2. Percentage permanence time in the open arm of the raised cross-shaped maze in a 5-minute period of time for the different treatments.
This test is used to determine the anxiety of the animal model, under baseline and treated conditions.

The subject of data set [5] is FMR1-KO mice. Briefly: Measurement of corticosterone in serum. Conditions: FMR1-KO mice vs WT controls under the same treatment. It is filed as in vivo, mouse. The source says: FIG. 3. Concentration of corticosterone in mouse serum (ng/ml).
The test system of data set [6] is FMR1-KO mice. Briefly: Level of lipid peroxidation (TBARS) in cerebral membranes. The settings on record: FMR1-KO vs WT under treatment; tianeptine: both genotypes vs saline control. It is filed as in vivo, mouse. The source says:
FIG. 4. Concentration of TBARS in mouse cerebral membranes (nmol/mg protein).

Data set [7] deals with FMR1-KO mice. Briefly: Reduced glutathione (GSH) in brain extract. The class given is in vivo, mouse. Conditions: vs saline control. The source says:
FIG. 5. Concentration of GSH in mouse brain extract (μmol/g protein). FMR1-KO (n=8): black bars and WT (n=9): white bars. *p<0.05 FMR1-KO vs. WT. # p<0.05 FMR1-KO vs. FMR1-KO. † p<0.05 WT vs. WT.

Data set [8] relates to FMR1-KO mice. Briefly: Oxidised glutathione (GSSG, % of GSH) in brain extract. The class given is in vivo, mouse. The settings on record: vs saline and naive controls. The source says:
FIG. 6. Percentage of GSSG with respect to GSH in mouse brain extract. FMR1-KO (n=8): black bars and WT (n=9): white bars. *p<0.05 FMR1-KO vs. WT. # p<0.05 FMR1-KO vs. FMR1-KO. † p<0.05 WT vs. WT.

For the next data set, the system named is Fmr1-KO mouse. The settings on record: chronic treatment; cited from earlier work.
Data set [9] relates to patients with Alzheimer's disease. Conditions: cited from earlier work.
The subject of data set [10] is transgenic mouse model for Alzheimer's disease. The settings on record: cited from earlier work.
Data set [11] concerns cytotoxicity induced by L-buthionine-sulfoximine (BSO). The settings on record: BSO causes decrease in intracellular glutathione; cited from earlier work.

SMILES strings stand for the structures.

As to `O=C1O[C@H]([C@@H](O)CO)C(O)=C1O` [Vitamin C, Ascorbic Acid], the “Effect on symptoms of Autism” value with children with Autism is on record as “significant decrease of some symptoms”. In addition, in data set [1], the Half-life is 16 days.
As for `COC(=O)N1CC[C@@H]2[C@H]1CCC[C@@]2(O)C#Cc1cccc(C)c1` [AFQ056], the “Efficacy on symptoms in patients with Fragile X Syndrome” value (shortened to “Efficacy on symptoms in patients”) in [2] is “demonstrates its effectiveness on the behavioural and learning problems”.
With `Cc1c(C)c2c(c(C)c1O)CC[C@@](C)(CCC[C@H](C)CCC[C@H](C)CCCC(C)C)O2` [Vitamin E, alpha-Tocopherol], the “Open-field total distance travelled” value with FMR1-KO mice [3] was “lower (p<0.05)”. Further, the “Percentage permanence time in the open arm of the raised cross-shaped maze” value with FMR1-KO mice [4] is recorded as “lower (p<0.05)”. Besides, the “Concentration of corticosterone in serum” value in the data set on FMR1-KO mice [5] is “maintained the same levels of corticosterone as compared to the WT controls”. Also, in the data set with FMR1-KO mice [6], the “Levels of TBARS in cerebral membranes” value is “normalises the levels of TBARS”. In addition, the “GSH in brain extract” value in the data set with FMR1-KO mice [7] is “higher values of GSH”. Moreover, the “Percentage of GSSG with respect to GSH in brain extract” value in the data set on FMR1-KO mice [8] was “normalised the values of GSSG”. The “Effect on parameters characteristic of the syndrome (hyperactivity, anxiety disorder, cognitive deficit)” value in the data set on Fmr1-KO mouse is listed as “normalising several parameters characteristic of the syndrome”. The “Effect on mental deterioration” value in [9] is “capable of delaying mental deterioration”. The “Lipid peroxidation and amyloid deposition” value in data set [10] was “reduced lipid peroxidation and amyloid deposition”. The “Protection against BSO-induced cytotoxicity” value in data set [11] was “significant protection”.
In the case of `CC12CC3CC(C)(C1)CC(N)(C3)C2` [Nemantine], the “Patients showing symptoms of improvement” value in data set [2] (of 6 affected patients) was 4.
For the compound `CN1CC(=O)NC1=NC(=O)Nc1cccc(Cl)c1` [Fenoban], in data set [2], the “Efficacy on symptoms in patients” value is “efficacy”.
For the compound `CN1c2ccccc2C(NCCCCCCC(=O)O)c2ccc(Cl)cc2S1(=O)=O` (centres unmarked) [Tianeptine], the “Open-field total distance travelled” value in the data set with FMR1-KO mice [3] is “greater total travelled distance”.
On to `CC(=O)O[C@H](CC(=O)[O-])C[N+](C)(C)C` [L-acetylcarnitine], for which, in [2], the “Efficacy on symptoms in patients” value was “efficacy in reducing hyperactivity and improving social relations”.
On to `COc1cc2c(cc1OC)C(=O)C(CC1CCN(Cc3ccccc3)CC1)C2` (centres unmarked) [donezepil], for which the “Efficacy on symptoms in patients” value in data set [2] was “significantly improves cognitive and behavioural functions”.
For the compound `COc1ccc2[nH]cc(CCNC(C)=O)c2c1` [Melatonin], the “Open-field total distance travelled” value in the data set with FMR1-KO mice [3] is listed as “lower (p<0.05)”. Further, the “Percentage permanence time in the open arm of the raised cross-shaped maze” value in the data set on FMR1-KO mice [4] was “lower (p<0.05)”. Besides, the “Concentration of corticosterone in serum” value in the data set with FMR1-KO mice [5] is on record as “maintained the same levels of corticosterone as compared to the WT controls”. Also, the “Levels of TBARS in cerebral membranes” value with FMR1-KO mice [6] was “normalises the levels of TBARS”. In addition, in the data set on FMR1-KO mice [7], the “GSH in brain extract” value was “higher values of GSH”. The “Percentage of GSSG with respect to GSH in brain extract” value with FMR1-KO mice [8] is “normalised the values of GSSG”. For the same compound, the “Efficacy on symptoms in patients” value in [2] is “reduce the sleep problems”. Besides, the “Effect on parameters characteristic of the syndrome (hyperactivity, anxiety disorder, cognitive deficit)” value in the data set with Fmr1-KO mouse is reported as “normalising several parameters characteristic of the syndrome”.

The values are drawn from patent US20160106708A1, “USE OF ANTIOXIDANTS FOR THE TREATMENT OF COGNITIVE AND BEHAVIOURAL DISORDERS IN INDIVIDUALS WITH FRAGILE X SYNDROME” (Servicio Andaluz de Salud, priority 2010, published 2016).
